Experimental data from PubChem BioAssay (NCI).
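Dose response: 5 concentrations. Exposure: 48 h. Format: 96-well plates. Endpoint: linear interpolation; highest concentration if not reached. GI50 is the concentration that inhibits growth by half. TGI marks complete inhibition of growth.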

Legend:
Assay in all cases: DTP human tumour cell line panel, 48 h
[1] = test system: 786-0 renal
[2] = test system: A498 renal
[3] = test system: A549 NSCLC
[4] = test system: ACHN renal
[5] = test system: BT-549 breast
[6] = test system: CAKI-1 renal
[7] = test system: CCRF-CEM leukemia
[8] = test system: COLO 205 colon
[9] = test system: DU-145 prostate
[10] = test system: EKVX NSCLC
[11] = test system: HCC-2998 colon
[12] = test system: HCT-116 colon
[13] = test system: HCT-15 colon
[14] = test system: HL-60(TB) leukemia
[15] = test system: HOP-62 NSCLC
[16] = test system: HOP-92 NSCLC
[17] = test system: HS 578T breast
[18] = test system: HT29 colon
[19] = test system: IGROV1 ovarian
[20] = test system: K-562 leukemia
[21] = test system: KM12 colon
[22] = test system: LOX IMVI melanoma
[23] = test system: M14 melanoma
[24] = test system: MALME-3M melanoma
[25] = test system: MCF7 breast
[26] = test system: MDA-MB-231 breast
[27] = test system: MDA-MB-435
[28] = test system: MOLT-4 leukemia
[29] = test system: NCI-H226 lung
[30] = test system: NCI-H23 lung
[31] = test system: NCI-H460 lung
[32] = test system: NCI-H522 lung
[33] = test system: NCI/ADR-RES ovarian
[34] = test system: OVCAR-3 ovarian
[35] = test system: OVCAR-4 ovarian
[36] = test system: OVCAR-5 ovarian
[37] = test system: OVCAR-8 ovarian
[38] = test system: PC-3 prostate
[39] = test system: RPMI-8226 leukemia
[40] = test system: RXF 393 renal
[41] = test system: SF-268 CNS
[42] = test system: SF-295 CNS
[43] = test system: SF-539 CNS
[44] = test system: SK-MEL-2 melanoma
[45] = test system: SK-MEL-28 melanoma
[46] = test system: SK-MEL-5 melanoma
[47] = test system: SK-OV-3 ovarian
[48] = test system: SN12C renal
[49] = test system: SNB-19 CNS
[50] = test system: SNB-75 CNS
[51] = test system: SR leukemia
[52] = test system: SW-620 colon
[53] = test system: T-47D breast
[54] = test system: TK-10 renal
[55] = test system: U251 CNS
[56] = test system: UACC-257 melanoma
[57] = test system: UACC-62 melanoma
[58] = test system: UO-31 renal

Molecule `CCN(CC)CCOc1nc2ccc(OC)cc2c2c1-c1ccc(OC)cc1C2=O` has a GI50 [1] of 1390 nM, a TGI [1] of 3110 nM and a GI50 [2] of 802 nM. The TGI [2] was 2170 nM, the GI50 [3] was 387 nM and the TGI [3] was 1590 nM. It also gave a GI50 [4] of 476 nM, a TGI [4] of 1790 nM and a GI50 [5] of 5940 nM. For the same molecule, the TGI [5] was 18000 nM, the GI50 [6] was 1150 nM and the TGI [6] was 2880 nM. The GI50 [7] was 299 nM, the TGI [7] was 3260 nM and the GI50 [8] was 546 nM. The TGI [8] was 1930 nM, the GI50 [9] was 626 nM and the TGI [9] was 1880 nM. For the same molecule, the GI50 [10] was 970 nM, the TGI [10] was 2810 nM and the GI50 [11] was 1310 nM. The TGI [11] was 6680 nM, the GI50 [12] was 368 nM and the TGI [12] was 1640 nM. It also gave a GI50 [13] of 584 nM, a TGI [13] of 2270 nM and a GI50 [14] of 1060 nM. For the same molecule, the TGI [14] was 3370 nM, the GI50 [15] was 1330 nM and the TGI [15] was 6190 nM. It also gave a GI50 [16] of 786 nM, a TGI [16] of 5360 nM and a GI50 [17] of 1480 nM. The TGI [17] was 6930 nM, the GI50 [18] was 545 nM and the TGI [18] was 1860 nM. It also gave a GI50 [19] of 417 nM, a TGI [19] of 1890 nM and a GI50 [20] of 502 nM. For the same molecule, the TGI [20] was 2540 nM, the GI50 [21] was 519 nM and the TGI [21] was 1770 nM. The GI50 [22] was 513 nM, the TGI [22] was 1880 nM and the GI50 [23] was 1420 nM. For the same molecule, the TGI [23] was 3100 nM, the GI50 [24] was 1680 nM and the TGI [24] was 3220 nM. For the same molecule, the GI50 [25] was 367 nM, the TGI [25] was 1530 nM and the GI50 [26] was 1540 nM. For the same molecule, the TGI [26] was 4100 nM, the GI50 [27] was 690 nM and the TGI [27] was 2090 nM. It also gave a GI50 [28] of 283 nM, a TGI [28] of 1850 nM and a GI50 [29] of 870 nM. The TGI [29] was 3060 nM, the GI50 [30] was 1250 nM and the TGI [30] was 3230 nM. It also gave a GI50 [31] of 371 nM, a TGI [31] of 1430 nM and a GI50 [32] of 394 nM. The TGI [32] was 1810 nM, the GI50 [33] was 848 nM and the TGI [33] was 2850 nM. The GI50 [34] was 872 nM, the TGI [34] was 2150 nM and the GI50 [35] was 1020 nM. It also gave a TGI [35] of 3170 nM, a GI50 [36] of 1870 nM and a TGI [36] of 7200 nM. It also gave a GI50 [37] of 526 nM, a TGI [37] of 2260 nM and a GI50 [38] of 1300 nM. The TGI [38] was 2910 nM, the GI50 [39] was 601 nM and the TGI [39] was 2240 nM. The GI50 [40] was 1210 nM, the TGI [40] was 2550 nM and the GI50 [41] was 595 nM. It also gave a TGI [41] of 2020 nM, a GI50 [42] of 519 nM and a TGI [42] of 1740 nM. For the same molecule, the GI50 [43] was 1240 nM, the TGI [43] was 2950 nM and the GI50 [44] was 2240 nM. The TGI [44] was 4050 nM, the GI50 [45] was 1810 nM and the TGI [45] was 3240 nM. For the same molecule, the GI50 [46] was 1570 nM, the TGI [46] was 2940 nM and the GI50 [47] was 2880 nM. It also gave a TGI [47] of 14800 nM, a GI50 [48] of 531 nM and a TGI [48] of 2060 nM. The GI50 [49] was 922 nM, the TGI [49] was 3190 nM and the GI50 [50] was 1360 nM. The TGI [50] was 5400 nM, the GI50 [51] was 344 nM and the TGI [51] was 1690 nM. The GI50 [52] was 253 nM, the TGI [52] was 1610 nM and the GI50 [53] was 11000 nM. The TGI [53] was 26300 nM, the GI50 [54] was 1380 nM and the TGI [54] was 2950 nM. For the same molecule, the GI50 [55] was 454 nM, the TGI [55] was 1720 nM and the GI50 [56] was 1400 nM. It also gave a TGI [56] of 3120 nM, a GI50 [57] of 2760 nM and a TGI [57] of 7650 nM. It also gave a GI50 [58] of 361 nM and a TGI [58] of 1850 nM.
